{"source": "paper PMC5218480", "about": "(PLoS ONE, 2017)", "tested_on": "MV-4-11 cells", "assay": "Gene expression microarray analysis (Affymetrix PrimeView) and GSEA", "format": "cell-based, human", "design": "RFU PODN (11730768_x_at) / Fold change /veh PODN (11730768_x_at) / RFU LINC00158 (11744669_a_at) / Fold change /veh LINC00158 (11744669_a_at) / RFU DUSP10 (11751237_a_at) / Fold change /veh DUSP10 (11751237_a_at) / RFU ID3 (11757404_x_at) / Fold change /veh ID3 (11757404_x_at) / RFU PLEKHG5 (11737974_s_at) / Fold change /veh PLEKHG5 (11737974_s_at) / RFU LRRC4B (11730491_at) / Fold change /veh LRRC4B (11730491_at) / RFU GIMAP4 (11747438_a_at) / Fold change /veh GIMAP4 (11747438_a_at) / RFU KRT8 (11758183_x_at) / Fold change /veh KRT8 (11758183_x_at) / RFU CNN1 (11734310_a_at) / Fold change /veh CNN1 (11734310_a_at) / RFU VPS37D (11726825_at) / Fold change /veh VPS37D (11726825_at) / RFU C10orf10 (11716522_x_at) / Fold change /veh C10orf10 (11716522_x_at) / RFU KIR2DL2 /// KIR2DL4 /// KIR2DL5A /// KIR2DL5B /// KIR2DS1 /// KIR2DS2 /// KIR2DS3 /// KIR2DS4 /// KIR3DL3 /// KIR3DL3 /// KIR3DS1 (11738374_at) / Fold change /veh KIR2DL2 /// KIR2DL4 /// KIR2DL5A /// KIR2DL5B /// KIR2DS1 /// KIR2DS2 /// KIR2DS3 /// KIR2DS4 /// KIR3DL3 /// KIR3DL3 /// KIR3DS1 (11738374_at) / RFU C1QL1 (11718748_at) / Fold change /veh C1QL1 (11718748_at) / RFU TMPRSS4 (11747572_a_at) / Fold change /veh TMPRSS4 (11747572_a_at) / RFU HAMP (11756126_x_at) / Fold change /veh HAMP (11756126_x_at) / RFU RNFT2 (11725882_a_at) / Fold change /veh RNFT2 (11725882_a_at) / RFU NR4A2 (11747474_a_at) / Fold change /veh NR4A2 (11747474_a_at) / RFU ABCC12 (11746883_a_at) / Fold change /veh ABCC12 (11746883_a_at) / RFU TMEM136 (11760407_x_at) / Fold change /veh TMEM136 (11760407_x_at) / RFU CLDN22 /// WWC2 (11732394_at) / Fold change /veh CLDN22 /// WWC2 (11732394_at) / RFU HLA-DPB1 (11760878_x_at) / Fold change /veh HLA-DPB1 (11760878_x_at) / RFU SPINT1 (11716480_a_at) / Fold change /veh SPINT1 (11716480_a_at) / RFU GAP43 (11754022_s_at) / Fold change /veh GAP43 (11754022_s_at) / RFU A4GNT (11735810_at) / Fold change /veh A4GNT (11735810_at) / RFU PRB3 (11715151_x_at) / Fold change /veh PRB3 (11715151_x_at) / RFU TUBB4B (11761932_at) / Fold change /veh TUBB4B (11761932_at) / RFU CAPN14 (11732068_a_at) / Fold change /veh CAPN14 (11732068_a_at) / RFU TMCC2 (11721928_a_at) / Fold change /veh TMCC2 (11721928_a_at) / RFU IRGQ (11745062_a_at) / Fold change /veh IRGQ (11745062_a_at) / RFU FAM174B (11720279_a_at) / Fold change /veh FAM174B (11720279_a_at) / RFU TMPRSS4 (11748680_a_at) / Fold change /veh TMPRSS4 (11748680_a_at) / RFU FAM212B (11763350_a_at) / Fold change /veh FAM212B (11763350_a_at) / RFU PLEKHG5 (11743358_a_at) / Fold change /veh PLEKHG5 (11743358_a_at) / RFU ZSCAN30 (11745921_a_at) / Fold change /veh ZSCAN30 (11745921_a_at) / RFU CMKLR1 (11741424_a_at) / Fold change /veh CMKLR1 (11741424_a_at) / RFU LOC101060620 /// MAPK8IP1 (11723275_at) / Fold change /veh LOC101060620 /// MAPK8IP1 (11723275_at) / RFU SPTSSB (11747773_x_at) / Fold change /veh SPTSSB (11747773_x_at) / RFU PRSS12 (11739890_at) / Fold change /veh PRSS12 (11739890_at) / RFU BIN1 (11741810_x_at) / Fold change /veh BIN1 (11741810_x_at) / RFU WNT11 (11732464_a_at) / Fold change /veh WNT11 (11732464_a_at) / RFU C10orf10 (11716521_a_at) / Fold change /veh C10orf10 (11716521_a_at) / RFU C5orf56 (11738089_at) / Fold change /veh C5orf56 (11738089_at) / RFU CYB561 (11721691_x_at) / Fold change /veh CYB561 (11721691_x_at) / RFU ANKRD19P (11752326_a_at) / Fold change /veh ANKRD19P (11752326_a_at) / RFU OR2T12 /// OR2T33 /// OR2T8 (11738714_s_at) / Fold change /veh OR2T12 /// OR2T33 /// OR2T8 (11738714_s_at) / RFU VCAN (11748164_a_at) / Fold change /veh VCAN (11748164_a_at) / RFU JSRP1 (11732532_at) / Fold change /veh JSRP1 (11732532_at) / RFU KRTAP10-11 (11738290_x_at) / Fold change /veh KRTAP10-11 (11738290_x_at) / RFU MYO3A (11730013_a_at) / Fold change /veh MYO3A (11730013_a_at) / RFU EBF3 (11725865_a_at) / Fold change /veh EBF3 (11725865_a_at) / RFU CAMK2N1 (11719241_x_at) / Fold change /veh CAMK2N1 (11719241_x_at) / RFU C5orf56 (11738088_a_at) / Fold change /veh C5orf56 (11738088_a_at) / RFU OLFML3 (11715873_a_at) / Fold change /veh OLFML3 (11715873_a_at) / RFU LOC100653217 /// NTM (11731650_a_at) / Fold change /veh LOC100653217 /// NTM (11731650_a_at) / RFU MAPK11 (11762145_a_at) / Fold change /veh MAPK11 (11762145_a_at) / RFU FIZ1 (11724087_x_at) / Fold change /veh FIZ1 (11724087_x_at) / RFU OASL (11726364_x_at) / Fold change /veh OASL (11726364_x_at) / RFU SOX15 (11748057_x_at) / Fold change /veh SOX15 (11748057_x_at) / RFU CD79A (11719716_a_at) / Fold change /veh CD79A (11719716_a_at) / RFU HIST1H1D (11736915_at) / Fold change /veh HIST1H1D (11736915_at) / RFU CASKIN2 (11723855_a_at) / Fold change /veh CASKIN2 (11723855_a_at) / RFU LOC730098 (11760151_x_at) / Fold change /veh LOC730098 (11760151_x_at) / RFU OR4N2 (11742367_at) / Fold change /veh OR4N2 (11742367_at) / RFU PRRT2 (11749266_a_at) / Fold change /veh PRRT2 (11749266_a_at) / RFU SNX32 (11753110_a_at) / Fold change /veh SNX32 (11753110_a_at) / RFU CDHR5 (11726645_a_at) / Fold change /veh CDHR5 (11726645_a_at) / RFU RCAN1 (11760418_a_at) / Fold change /veh RCAN1 (11760418_a_at) / RFU FAM167A (11723789_a_at) / Fold change /veh FAM167A (11723789_a_at) / RFU FAM26E (11764081_at) / Fold change /veh FAM26E (11764081_at) / RFU ISYNA1 (11749810_s_at) / Fold change /veh ISYNA1 (11749810_s_at) / RFU ACY1 (11761880_at) / Fold change /veh ACY1 (11761880_at) / RFU 11764098_at / Fold change /veh 11764098_at / RFU SAMD14 (11745864_x_at) / Fold change /veh SAMD14 (11745864_x_at) / RFU NPB (11741838_a_at) / Fold change /veh NPB (11741838_a_at) / RFU TMPRSS6 (11731388_a_at) / Fold change /veh TMPRSS6 (11731388_a_at) / RFU KRTAP10-2 (11738614_at) / Fold change /veh KRTAP10-2 (11738614_at) / RFU ARHGAP8 /// PRR5-ARHGAP8 (11727945_x_at) / Fold change /veh ARHGAP8 /// PRR5-ARHGAP8 (11727945_x_at) / RFU KRTAP5-7 /// NADSYN1 (11734609_at) / Fold change /veh KRTAP5-7 /// NADSYN1 (11734609_at) / RFU RASL12 (11751679_a_at) / Fold change /veh RASL12 (11751679_a_at) / RFU CDKN2B (11736163_a_at) / Fold change /veh CDKN2B (11736163_a_at) / RFU PRF1 (11729649_at) / Fold change /veh PRF1 (11729649_at) / RFU, ZNF638 /// ZNF638-IT1 / Fold change vs veh, ZNF638 /// ZNF638-IT1 / RFU, PANK3 / Fold change vs veh, PANK3 / RFU, SH3YL1 / Fold change vs veh, SH3YL1 / RFU, ZEB2 / Fold change vs veh, ZEB2 / RFU, NRIP1 / Fold change vs veh, NRIP1 / RFU, PTTG1IP / Fold change vs veh, PTTG1IP / RFU, CAPN2 / Fold change vs veh, CAPN2 / RFU, MED14 / Fold change vs veh, MED14 / RFU, SNORA58 / Fold change vs veh, SNORA58 / RFU, C1orf63 / Fold change vs veh, C1orf63 / RFU, LRRFIP1 / Fold change vs veh, LRRFIP1 / RFU, NDUFAF7 / Fold change vs veh, NDUFAF7 / RFU, SLC12A2 / Fold change vs veh, SLC12A2 / RFU, IBTK / Fold change vs veh, IBTK / RFU, ESF1 / Fold change vs veh, ESF1 / Fold change vs veh, TMEM50B / RFU, TAOK1 / Fold change vs veh, TAOK1 / RFU, ACBD3 / Fold change vs veh, ACBD3 / RFU, TMA16 / Fold change vs veh, TMA16 / RFU, RWDD3 / Fold change vs veh, RWDD3 / RFU, BCAT1 / Fold change vs veh, BCAT1 / RFU, EDEM3 / Fold change vs veh, EDEM3 / RFU, TMEM33 / Fold change vs veh, TMEM33 / RFU, WDR75 / Fold change vs veh, WDR75 / RFU, AHCTF1 / Fold change vs veh, AHCTF1 / RFU, TFRC / Fold change vs veh, TFRC / RFU, ZDHHC17 / Fold change vs veh, ZDHHC17 / RFU, NOM1 / Fold change vs veh, NOM1 / RFU, ARL8B / Fold change vs veh, ARL8B / RFU, ZBTB11 / Fold change vs veh, ZBTB11 / RFU, TAMM41 / Fold change vs veh, TAMM41 / RFU, KIAA1704 /// LOC100996395 / Fold change vs veh, KIAA1704 /// LOC100996395 / RFU, ING1 / Fold change vs veh, ING1 / RFU, TRMT61B / Fold change vs veh, TRMT61B / RFU, FUBP3 / Fold change vs veh, FUBP3 / RFU, TP53 / Fold change vs veh, TP53 / RFU, TNKS2 / Fold change vs veh, TNKS2 / RFU, ZFP14 / Fold change vs veh, ZFP14 / RFU, ACTR2 / Fold change vs veh, ACTR2 / RFU, PPP3R1 / Fold change vs veh, PPP3R1 / RFU, PIK3R1 / Fold change vs veh, PIK3R1 / RFU, HNRNPA1 / Fold change vs veh, HNRNPA1 / RFU, RNF170 / Fold change vs veh, RNF170 / RFU, ZNF28 / Fold change vs veh, ZNF28 / RFU, RNGTT / Fold change vs veh, RNGTT / RFU, OGT / Fold change vs veh, OGT / RFU, BRD1 / Fold change vs veh, BRD1 / RFU, MARS / Fold change vs veh, MARS / RFU, ZNF655 / Fold change vs veh, ZNF655 / RFU, FAHD1 / Fold change vs veh, FAHD1 / RFU, BDP1 / Fold change vs veh, BDP1 / RFU, LRRCC1 / Fold change vs veh, LRRCC1 / RFU, ARID1A / Fold change vs veh, ARID1A / RFU, ZNF146 / Fold change vs veh, ZNF146 / RFU, ZNF330 / Fold change vs veh, ZNF330 / RFU, GPN3 / Fold change vs veh, GPN3 / RFU, C9orf123 / Fold change vs veh, C9orf123 / RFU, N4BP2L2 / Fold change vs veh, N4BP2L2 / RFU, ARFIP1 / Fold change vs veh, ARFIP1 / RFU, FAM179B / Fold change vs veh, FAM179B / RFU, BCL10 / Fold change vs veh, BCL10 / RFU, UHRF1BP1L / Fold change vs veh, UHRF1BP1L / RFU, BET1 / Fold change vs veh, BET1 / RFU, CNOT2 / Fold change vs veh, CNOT2 / RFU, ZNF268 / Fold change vs veh, ZNF268 / Fold change vs veh, ZNF507 / RFU, DGCR2 / Fold change vs veh, DGCR2 / RFU, WDSUB1 / Fold change vs veh, WDSUB1 / Fold change vs veh, HSP90B1 /// MIR3652 / RFU, ADSS / Fold change vs veh, ADSS / RFU, GK / Fold change vs veh, GK / RFU, ZNF148 / Fold change vs veh, ZNF148 / RFU, TAF9 / Fold change vs veh, TAF9 / RFU, SLC1A5 / Fold change vs veh, SLC1A5 / RFU, SLMO2 / Fold change vs veh, SLMO2 / RFU, ABCC4 / Fold change vs veh, ABCC4 / RFU, LOC101060439 /// RAP1B / Fold change vs veh, LOC101060439 /// RAP1B / RFU, RFX7 / Fold change vs veh, RFX7 / RFU, GTPBP10 / Fold change vs veh, GTPBP10 / RFU, CNEP1R1 / Fold change vs veh, CNEP1R1 / RFU, BIVM-ERCC5 /// ERCC5 / Fold change vs veh, BIVM-ERCC5 /// ERCC5 / RFU, ILF3 / Fold change vs veh, ILF3 / RFU 11762660_at / Fold change /veh 11762660_at / RFU VCAN (11757783_s_at) / Fold change /veh VCAN (11757783_s_at) / RFU DDX43 (11728927_at) / Fold change /veh DDX43 (11728927_at) / RFU KRT8 (11758188_x_at) / Fold change /veh KRT8 (11758188_x_at) / RFU NKD1 (11759106_at) / Fold change /veh NKD1 (11759106_at) / RFU SRD5A1 (11742802_a_at) / Fold change /veh SRD5A1 (11742802_a_at) / RFU TPSAB1 /// TPSB2 (11721975_s_at) / Fold change /veh TPSAB1 /// TPSB2 (11721975_s_at) / RFU GSTM3 (11746129_a_at) / Fold change /veh GSTM3 (11746129_a_at) / RFU IL23R (11737362_x_at) / Fold change /veh IL23R (11737362_x_at) / RFU TMEM51 (11727254_a_at) / Fold change /veh TMEM51 (11727254_a_at) / RFU PIWIL2 (11732686_x_at) / Fold change /veh PIWIL2 (11732686_x_at) / RFU ORM1 (11744905_x_at) / Fold change /veh ORM1 (11744905_x_at) / RFU CCDC152 (11743942_at) / Fold change /veh CCDC152 (11743942_at) / RFU ECM1 (11717891_a_at) / Fold change /veh ECM1 (11717891_a_at) / RFU IL23R (11748794_a_at) / Fold change /veh IL23R (11748794_a_at) / RFU TNFAIP8L3 (11732012_x_at) / Fold change /veh TNFAIP8L3 (11732012_x_at) / RFU MBOAT4 (11741988_at) / Fold change /veh MBOAT4 (11741988_at) / RFU 11764193_at / Fold change /veh 11764193_at / RFU TMEM53 (11763286_at) / Fold change /veh TMEM53 (11763286_at) / RFU MAGEB2 (11727129_at) / Fold change /veh MAGEB2 (11727129_at) / RFU TMEM200A (11744735_a_at) / Fold change /veh TMEM200A (11744735_a_at) / RFU CCDC152 (11751479_a_at) / Fold change /veh CCDC152 (11751479_a_at) / RFU FAM211A (11726209_a_at) / Fold change /veh FAM211A (11726209_a_at) / RFU RGS16 (11746705_a_at) / Fold change /veh RGS16 (11746705_a_at) / RFU VCAN (11755009_s_at) / Fold change /veh VCAN (11755009_s_at) / RFU RHOB (11743442_s_at) / Fold change /veh RHOB (11743442_s_at) / RFU RGS16 (11720943_a_at) / Fold change /veh RGS16 (11720943_a_at) / RFU RGS16 (11720944_at) / Fold change /veh RGS16 (11720944_at) / RFU, VPS4B / Fold change vs veh, VPS4B / RFU, CREB1 / Fold change vs veh, CREB1 / RFU, DNAJC13 / Fold change vs veh, DNAJC13 / RFU, GNAQ / Fold change vs veh, GNAQ / RFU, CDK5R1 / Fold change vs veh, CDK5R1 / RFU, ZRANB3 / Fold change vs veh, ZRANB3 / RFU, CUL4A / Fold change vs veh, CUL4A / RFU, CCNY / Fold change vs veh, CCNY / RFU, UFL1 / Fold change vs veh, UFL1 / RFU, COG3 / Fold change vs veh, COG3 / RFU, DIAPH2 / Fold change vs veh, DIAPH2 / RFU, SKA2 / Fold change vs veh, SKA2 / RFU, AFF3 / Fold change vs veh, AFF3 / RFU, LMF1 / Fold change vs veh, LMF1 / RFU, IPO11 / Fold change vs veh, IPO11 / RFU, DFFB / Fold change vs veh, DFFB / RFU, FOXP1 / Fold change vs veh, FOXP1 / RFU, CARD8 / Fold change vs veh, CARD8 / RFU, STRN3 / Fold change vs veh, STRN3 / RFU, ADK / Fold change vs veh, ADK / RFU, RASSF2 / Fold change vs veh, RASSF2 / RFU, WIPF1 / Fold change vs veh, WIPF1 / RFU, LARP1B / Fold change vs veh, LARP1B / RFU, RASA1 / Fold change vs veh, RASA1 / RFU, RB1 / Fold change vs veh, RB1 / RFU, PPFIA1 / Fold change vs veh, PPFIA1 / RFU, MAT2A / Fold change vs veh, MAT2A / RFU, CCT5 / Fold change vs veh, CCT5 / RFU, WDR92 / Fold change vs veh, WDR92 / RFU, CUX1 / Fold change vs veh, CUX1 / RFU, TTC7A / Fold change vs veh, TTC7A / RFU, TMEM135 / Fold change vs veh, TMEM135 / RFU, DEPTOR / Fold change vs veh, DEPTOR / RFU, CPM / Fold change vs veh, CPM / RFU, DNAJB6 / Fold change vs veh, DNAJB6 / RFU, CACNA2D3 / Fold change vs veh, CACNA2D3 / RFU, DTX4 / Fold change vs veh, DTX4 / RFU, TFCP2 / Fold change vs veh, TFCP2 / RFU, GMCL1 /// GMCL1P1 / Fold change vs veh, GMCL1 /// GMCL1P1 / RFU, AEBP2 / Fold change vs veh, AEBP2 / RFU, SNHG1 /// SNORD22 /// SNORD25 /// SNORD26 /// SNORD27 /// SNORD28 /// SNORD29 /// SNORD31 / Fold change vs veh, SNHG1 /// SNORD22 /// SNORD25 /// SNORD26 /// SNORD27 /// SNORD28 /// SNORD29 /// SNORD31 / Fold change (Aza/veh), C12orf56 (ProbeSet 11735607_a_at) / Fold change (ACY-1035/veh), C12orf56 (ProbeSet 11735607_a_at) / Fold change (Aza/veh), FGFR1OP (ProbeSet 11751329_s_at) / Fold change (ACY-1035/veh), FGFR1OP (ProbeSet 11751329_s_at) / Fold change (Aza/veh), VPS36 (ProbeSet 11739960_a_at) / Fold change (ACY-1035/veh), VPS36 (ProbeSet 11739960_a_at) / RFU SYPL1 (11715823_x_at) / Fold change /veh SYPL1 (11715823_x_at) / RFU IGFBP7 (11715501_s_at) / Fold change /veh IGFBP7 (11715501_s_at) / RFU REEP3 (11722064_at) / Fold change /veh REEP3 (11722064_at) / RFU IGLL1 (11728026_x_at) / Fold change /veh IGLL1 (11728026_x_at): dose or concentration left out as unconfirmed", "conditions": "ProbeSet 11743362_s_at; LIST B", "data": [{"smiles": "Nc1ccc(-c2cccs2)cc1NC(=O)c1ccc2c(c1)cc(C1CC1)n2CCN1CCOCC1", "note": "[ACY-1035]", "values": [{"measurement": "RFU, ADSS", "result": 662.69, "unit": "RFU"}]}]}
